The supplement of paper PMC10307832

Key:
Assay in all cases: relative viability (nuclei count vs DMSO), 5 days (fraction); higher = more cells survive
[1] = compound: CC(C)(C)c1cc(NC(=O)Nc2ccc(-c3cn4c(n3)sc3cc(OCCN5CCOCC5)ccc34)cc2)no1 [Quizartinib] + COc1cc2c(Oc3ccc(NC(=O)C4(C(=O)Nc5ccc(F)cc5)CC4)cc3F)ccnc2cc1OCCCN1CCOCC1 [Foretinib] (partner 0.25 µM)
In short: (§1)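 Cells from lung cancer lines were seeded into 1536-well plates and, one day later, dosed by pin tool. Treatments were either a single drug or a fixed dose of an anchor drug with five library-drug doses (not always all listed) in √10 steps. After 5 days, nuclei were stained in a one-step fixation (final 0.05% Triton X-100, 1% formaldehyde, 1 ug/ml Hoechst) and counted on 4× images, and relative viability is the treated-to-vehicle nuclei ratio, as the median of duplicate plates.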

[2] = compound: COCC[n+]1c2c(n(Cc3cnccn3)c1C)C(=O)c1ccccc1C2=O [YM155] + CC(=O)Nc1cccc(-n2c(=O)n(C3CC3)c(=O)c3c(Nc4ccc(I)cc4F)n(C)c(=O)c(C)c32)c1 [Trametinib] (partner 0.02 µM)
In short: as §1

[3] = compound: CC(C)(C)c1cc(NC(=O)Nc2ccc(-c3cn4c(n3)sc3cc(OCCN5CCOCC5)ccc34)cc2)no1 [Quizartinib] + O=C(CCCCCCC(=O)Nc1ccccc1)NO [Vorinostat] (partner 1 µM)
In short: as §1

[4] = compound: COCC[n+]1c2c(n(Cc3cnccn3)c1C)C(=O)c1ccccc1C2=O [YM155] + CC1(C)CCC(c2ccc(Cl)cc2)=C(CN2CCN(c3ccc(C(=O)NS(=O)(=O)c4ccc(N[C@H](CCN5CCOCC5)CSc5ccccc5)c(S(=O)(=O)C(F)(F)F)c4)cc3)CC2)C1 [Navitoclax] (partner 0.5 µM)
In short: as §1

| Cell Line | relative viability ([1]; first compound 0.001 µM) | relative viability ([1]; first compound 0.003162 µM) | relative viability ([1]; first compound 0.01 µM) | relative viability ([1]; first compound 0.03162 µM) | relative viability ([1]; first compound 0.1 µM) | relative viability ([2]; first compound 0.002 µM) | relative viability ([2]; first compound 0.006325 µM) | relative viability ([2]; first compound 0.02 µM) | relative viability ([2]; first compound 0.06325 µM) | relative viability ([3]; first compound 0.001 µM) | relative viability ([3]; first compound 0.003162 µM) | relative viability ([3]; first compound 0.01 µM) | relative viability ([3]; first compound 0.03162 µM) | relative viability ([3]; first compound 0.1 µM) | relative viability ([4]; first compound 0.002 µM) | relative viability ([4]; first compound 0.006325 µM) | relative viability ([4]; first compound 0.02 µM) | relative viability ([4]; first compound 0.06325 µM) |
| --- | --- | --- | --- | --- | --- | --- | --- | --- | --- | --- | --- | --- | --- | --- | --- | --- | --- | --- |
| SK-MES-1 | 0.789 | 0.901 | 0.972 | 0.925 | 0.939 | 0.588 | 0.701 | 0.459 | 0.218 | 1.01 | 1 | 1.2 | 0.586 | 1.03 | 1.3 | 1.36 | 1.28 | 1.07 |
| NCI-H1975 | 0.936 | 0.89 | 0.869 | 0.843 | 1.14 | 0.291 | 0.299 | 0.406 | 0.236 | 0.669 | 0.695 | 0.745 | 0.705 | 0.721 | 1.09 | 0.97 | 1.08 | 0.626 |
| HCC-78 | 0.53 | 0.57 | 0.573 | 0.513 | 0.558 | 0.698 | 0.756 | 0.785 | 0.879 | 0.453 | 0.44 | 0.445 | 0.419 | 0.445 | 0.79 | 0.717 | 0.767 | 0.942 |
| H3255 | 0.874 | 0.84 | 1.14 | 1.07 | 0.763 | 0.583 | 0.666 | 0.632 | 0.542 |  | 0.744 | 0.732 | 0.808 | 0.836 | 0.491 | 0.523 | 0.487 | 0.525 |
| NCI-H1299 | 1.06 | 1.05 | 1.14 | 1.05 | 1.12 |  |  |  |  |  |  |  |  |  | 1.08 | 0.996 | 1.01 | 1.03 |
| NCI-H441 | 1.23 | 0.923 | 1.13 |  | 0.914 | 0.383 | 0.393 | 0.461 | 0.268 | 0.755 | 0.683 | 0.972 | 0.595 | 0.834 | 0.56 | 0.633 | 0.554 | 0.403 |
| NCI-H1755 | 0.826 | 0.881 | 0.93 | 0.956 | 0.822 | 0.764 | 0.752 | 0.751 | 0.755 | 0.723 | 0.69 | 0.796 | 0.946 | 0.717 | 0.996 | 0.981 | 0.949 | 1.06 |
| LCLC-97TM1 | 0.889 | 0.802 | 0.906 | 0.953 | 0.971 |  | 0.178 | 0.23 | 0.21 | 0.573 | 0.52 | 0.685 | 0.677 | 0.767 | 0.319 | 0.394 | 0.391 | 0.376 |
| NCI-H2085 | 0.868 | 0.853 | 1.2 | 0.873 | 0.883 | 0.573 | 0.659 | 0.679 | 0.348 | 0.694 | 0.784 | 0.791 | 0.796 | 0.733 | 1.06 | 0.989 | 0.99 | 0.674 |
| BEN | 0.672 | 0.772 | 0.648 | 0.424 | 0.672 | 0.984 | 0.864 | 0.951 | 1.2 | 0.533 | 0.532 | 0.565 | 0.56 | 0.602 | 0.0838 | 0.0769 | 0.0788 | 0.0609 |
| NCI-H2126 | 1 | 1.12 | 1.2 | 1.22 | 1.23 | 0.558 | 0.582 | 0.541 | 0.556 | 0.621 | 0.789 | 0.711 | 0.816 | 0.841 | 0.866 | 0.877 | 0.871 | 0.875 |
| EMC-BAC-2 | 0.938 | 1.02 | 1.14 |  | 1.01 | 0.924 | 0.96 | 0.968 | 0.429 | 0.433 | 0.486 | 0.288 |  | 0.544 | 1.12 | 1.24 | 1.09 | 1.13 |
| NCI-H1793 | 0.728 | 0.59 | 0.797 | 0.759 | 0.729 | 0.4 | 0.452 | 0.432 | 0.407 | 0.642 | 0.888 | 0.762 | 0.809 | 0.881 |  | 0.337 | 0.422 | 0.301 |
| NCI-H650 | 1.02 | 1.04 | 1.16 | 0.978 | 1.18 | 1.05 | 0.875 | 0.967 | 1.04 | 0.464 | 0.445 | 0.416 | 0.456 | 0.54 |  |  |  |  |
| NCI-H1437 | 0.719 | 1.16 | 1.28 | 1.07 | 0.949 | 0.42 | 0.564 | 0.534 | 0.469 | 0.606 | 0.81 | 0.78 | 0.758 | 0.591 | 1.07 | 1.08 | 1.09 | 1.01 |
| COR-L 105 | 0.775 | 0.986 | 1.03 | 1 | 0.964 | 0.433 | 0.449 | 0.484 | 0.456 | 0.266 | 0.793 | 0.871 |  | 0.881 | 0.672 | 0.892 | 0.783 | 0.501 |
| CAL-12T | 0.781 | 1.1 | 1.14 | 0.935 | 1.22 | 0.281 | 0.337 | 0.346 | 0.333 | 0.684 | 0.711 | 0.914 | 0.511 | 0.943 | 1.22 | 1.16 | 1.16 | 0.299 |
| IA-LM | 1.05 | 1.01 | 1.17 | 1.14 | 1.02 |  |  |  |  | 0.71 | 0.811 |  | 0.874 | 0.955 | 0.723 | 0.757 | 0.811 | 0.585 |
| ChaGo-K-1 | 0.974 | 0.911 | 0.959 | 0.866 | 0.949 | 0.832 | 0.929 | 0.865 | 0.913 |  | 0.709 | 0.758 | 0.719 | 0.773 | 1.14 | 0.928 | 0.785 | 0.93 |
